Key:
MDA-MB-231 cells = assay: Inhibition of proliferation of triple-negative breast cancer cells, CellTiter-Glo; type: cell-based; settings: Homo sapiens, 120 h; MDA-MB-231, cultured for 5 days
Method: Specifically, the following test was performed in order to evaluate the inhibitory activity of the compound according to the present invention against the cell proliferation in triple-negative breast cancer cells (TNBCs).
Cells were seeded in 180 μL of a culture broth at a density of 2,000 to 3,000 cells/well in a white clear bottom 96-well plate (Corning) according to the growth ability of each cell, and then cultured for 24 hours under conditions of 5% CO2 and 37° C. Thereafter, the compound was prepared by diluting a 10 mM stock solution three-fold with 100% DMSO at a total of 12 concentrations so that a peak concentration of the compound was in a range of 10 mM to 0.05 μM, and the diluted compound was then diluted in each cell culture medium so that a final concentration of the compound was in a range of 100 μM to 0.5 nM. 20 μL of a diluted solution diluted with a medium was added to the cell solution in which cells were seeded in the 96-well plate on the previous day so that a final concentration of the diluted solution was in a range of 10 μM to 0.05 nM. Each of the cells was cultured for 5 days. To check cell viability, a mixture provided in a CellTiter-Glo® Luminescent Cell Viability Assay Kit (Promega) was added to each of the cultured cell media, and cultured for another 10 minutes under a condition of 37° C. Then, a degree of luminescence (fluorescence) was measured. A degree of inhibition of the cell growth according to the treatment concentration of each of the compounds was calculated based on the fluorescence of the solvent control cells which were not treated with the compound.

TTK = biological target: T1, TTK (Homo sapiens, UniProt P33981); assay: TTK enzyme activity, ADP-Glo kinase assay; type: biochemical; design: purchased SignalChem T20-10G; settings: purified human TTK, ATP 10 μM, 25° C., 2 hours
T1 sequence (P33981 1-857): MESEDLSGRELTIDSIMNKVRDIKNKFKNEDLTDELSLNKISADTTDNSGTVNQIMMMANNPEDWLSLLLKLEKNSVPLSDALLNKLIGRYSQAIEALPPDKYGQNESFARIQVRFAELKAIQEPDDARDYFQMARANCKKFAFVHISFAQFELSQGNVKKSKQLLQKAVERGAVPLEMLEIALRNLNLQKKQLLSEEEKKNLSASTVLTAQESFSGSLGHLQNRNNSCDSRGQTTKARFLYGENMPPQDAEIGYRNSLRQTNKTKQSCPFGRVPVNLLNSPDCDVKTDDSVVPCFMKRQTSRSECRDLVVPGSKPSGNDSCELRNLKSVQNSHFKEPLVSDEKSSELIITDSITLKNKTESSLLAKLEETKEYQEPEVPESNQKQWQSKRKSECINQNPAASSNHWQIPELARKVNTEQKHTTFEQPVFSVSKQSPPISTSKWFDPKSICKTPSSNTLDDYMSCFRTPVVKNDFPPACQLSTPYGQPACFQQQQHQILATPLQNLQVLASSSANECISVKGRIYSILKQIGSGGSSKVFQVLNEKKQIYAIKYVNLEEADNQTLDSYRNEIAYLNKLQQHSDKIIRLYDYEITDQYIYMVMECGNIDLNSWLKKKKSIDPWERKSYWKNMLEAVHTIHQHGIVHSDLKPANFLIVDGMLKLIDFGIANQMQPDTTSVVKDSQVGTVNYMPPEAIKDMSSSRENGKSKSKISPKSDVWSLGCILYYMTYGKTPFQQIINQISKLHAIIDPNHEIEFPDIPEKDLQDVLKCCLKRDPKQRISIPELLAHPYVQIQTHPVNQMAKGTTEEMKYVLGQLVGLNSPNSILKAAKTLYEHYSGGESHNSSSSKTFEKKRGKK
Method: To evaluate an inhibitory activity of the compound according to the present invention against TTK (MPS1), an experiment was performed as follows.
Each of the Example compounds was reacted with a purified human TTK (SignalChem #T20-10G) enzyme to evaluate an ability to inhibit an enzyme using a method as described below. A composition of 40 mM Tris-HCl (pH 7.4), 20 mM MgCl2, 0.5 mg/mL BSA, and 50 μM DTT was used as a reaction buffer, and all reactions of test substances were performed in the reaction buffer. […] In the test, purified ATP (10 μM) and an enzyme substrate (0.2 μg) were reacted with a human TTK (25 ng) enzyme at 25° C. for 2 hours, and the enzyme activity was determined using an in vitro ADP-Glo™ kinase assay (Promega). […] The degree of inhibition of the enzyme activity according to the treatment concentration of each of the compounds was calculated based on the fluorescence of the enzyme activity of the solvent control which was not treated with the compound.

Row | SMILES | GI50 (MDA-MB-231 cells) [nM] | IC50 (TTK) [nM]
1 | COc1cc(-c2ccc(F)nc2)ccc1Nc1nc(NC2CCCC2)c2c(C#N)c[nH]c2n1 [Example 42, 4-(cyclopentylamino)-2-((4-(6-fluoropyridin-3-yl)-2-methoxyphenyl)amino)-7H-pyrrolo[2,3-d] pyrimidine-5-carbonitrile] | < 100 | 50 to 200
2 | COc1cc(-c2cnn(C)c2)ccc1Nc1nc(NC2CCCC2)c2c(C#N)c[nH]c2n1 [Example 43, 4-(cyclopentylamino)-2-((2-methoxy-4-(1-methyl-1H-pyrazol-4-yl)phenyl)amino)-7H-pyrrolo[2,3-d] pyrimidine-5-carbonitrile] | < 100 | < 50
3 | COc1cc(-c2c(C)noc2C)ccc1Nc1nc(NC2CCCC2)c2c(C#N)c[nH]c2n1 [Example 44, 4-(cyclopentylamino)-2-((4-(3,5-dimethylisoxazol-4-yl)-2-methoxyphenyl)amino)-7H-pyrrolo[2,3-d] pyrimidine-5-carbonitrile] | < 100 | 50 to 200
4 | CCOc1cc(-c2nncn2C)ccc1Nc1nc(C2CC2)c2c(C#N)c[nH]c2n1 [Example 46, 4-cyclopropyl-2-((2-ethoxy-4-(4-methyl-4H-1,2,4-triazol-3-yl)phenyl)amino)-7H-pyrrolo[2,3-d] pyrimidine-5-carbonitrile] | > 1000 | 200 to 1000
5 | CNc1nc(Nc2ccc(N3CCCC3=O)cc2OC)nc2[nH]cc(C(F)(F)F)c12 [Example 51, l-(3-methoxy-4-((4-(methylamino)-5-(trifluoromethyl)-7H-pyrrolo[2,3-d]pyrimidin-2-yl)amino)phenyl) pyrrolidin-2-one] | > 1000 | 50 to 200
6 | COc1cc(N2CCCC2=O)ccc1Nc1nc(NC(C)C)c2c(C#N)c[nH]c2n1 [Example 65, 4-(isopropylamino)-2-((2-methoxy-4-(2-oxopyrrolidin-1-yl)phenyl)amino)-7H-pyrrolo[2,3-d] pyrimidine-5-carbonitrile] | < 100 | < 50
7 | COc1cc(N2CCCC2=O)ccc1Nc1nc(NCC(C)C)c2c(C#N)c[nH]c2n1 [Example 66, 4-(isobutylamino)-2-((2-methoxy-4-(2-oxopyrrolidin-1-yl)phenyl)amino)-7H-pyrrolo[2,3-d] pyrimidine-5-carbonitrile] | < 100 | < 50
8 | CCCCNc1nc(Nc2ccc(N3CCCC3=O)cc2OC)nc2[nH]cc(C#N)c12 [Example 67, 4-(butylamino)-2-((2-methoxy-4-(2-oxopyrrolidin-1-yl)phenyl)amino)-7H-pyrrolo[2,3-d] pyrimidine-5-carbonitrile] | < 100 | < 50
9 | COc1cc(N2CCCC2=O)ccc1Nc1nc(NC2CCC2)c2c(C#N)c[nH]c2n1 [Example 69, 4-(cyclobutylamino)-2-((2-methoxy-4-(2-oxopyrrolidin-1-yl)phenyl)amino)-7H-pyrrolo[2,3-d] pyrimidine-5-carbonitrile] | > 1000 | < 50
10 | COc1cc(N2CCCC2=O)ccc1Nc1nc(NCC2CCC2)c2c(C#N)c[nH]c2n1 [Example 70, 4-((cyclobutylmethyl)amino)-2-((2-methoxy-4-(2-oxopyrrolidin-1-yl)phenyl)amino)-7H-pyrrolo[2,3-d] pyrimidine-5-carbonitrile] | > 1000 | < 50
11 | COCC(C)(C)Nc1nc(Nc2ccc(N3CCCC3=O)cc2OC)nc2[nH]cc(C#N)c12 [Example 72, 4-((1-methoxy-2-methylpropan-2-yl)amino)-2-((2-methoxy-4-(2-oxopyrrolidin-1-yl)phenyl)amino)-7H-pyrrolo[2,3-d] pyrimidine-5-carbonitrile] | 100 to 1000 | < 50
12 | COc1cc(N2CCCC2=O)ccc1Nc1nc(NC2COC2)c2c(C#N)c[nH]c2n1 [Example 73, 2-((2-methoxy-4-(2-oxopyrrolidin-1-yl)phenyl)amino)-4-(oxetan-3-ylamino)-7H-pyrrolo[2,3-d] pyrimidine-5-carbonitrile] | < 100 | < 50
13 | CNc1nc(Nc2ccc(-c3ccnn3C)c3c2OCCO3)nc2[nH]cc(C#N)c12 [Example 75, 2-((8-(l-methyl-1H-pyrazol-5-yl)-2,3-dihydrobenzo[b][1,4]dioxin-5-yl)amino)-4-(methylamino)-1H-pyrrolo[2,3-d] pyrimidine-5-carbonitrile] | < 100 | < 50
14 | CC(C)Nc1nc(Nc2ccc(-c3ccnn3C)c3c2OCCO3)nc2[nH]cc(C#N)c12 [Example 76, 4-(isopropylamino)-2-((8-(1-methyl-1H-pyrazol-5-yl)-2,3-dihydrobenzo[b][1,4]dioxin-5-yl)amino)-7H-pyrrolo[2,3-d] pyrimidine-5-carbonitrile] | < 100 | < 50
15 | N#Cc1c[nH]c2nc(Nc3ccc(N4CCCC4=O)c4c3OCCO4)nc(NC3CCCCC3)c12 [Example 79, 4-(cyclohexylamino)-2-((8-(2-oxopyrrolidin-1-yl)-2,3-dihydrobenzo[b][1,4]dioxin-5-yl)amino)-7H-pyrrolo[2,3-d] pyrimidine-5-carbonitrile] | < 100 | < 50
16 | Cn1nccc1-c1ccc(Nc2nc(NC3CCC3)c3c(C#N)c[nH]c3n2)c2c1OCCO2 [Example 82, 4-(cyclobutylamino)-2-((8-(1-methyl-1H-pyrazol-5-yl)-2,3-dihydrobenzo[b][1,4]dioxin-5-yl)amino)-7H-pyrrolo[2,3-d] pyrimidine-5-carbonitrile] | < 100 | < 50
17 | C[C@@H](Oc1cc(C(=O)N(C)C)ccc1Nc1nc(O[C@H]2CC[C@@](C)(O)CC2)c2c(Cl)c[nH]c2n1)C(F)(F)F [Example 86, 4-((5-chloro-4-(((1s,4S)-4-hydroxy-4-methylcyclohexyl)oxy)-7H-pyrrolo[2,3-d]pyrimidin-2-yl)amino)-N,N-dimethyl-3-(((R)-1,1,1-trifluoropropan-2-yl)oxy)benzamide] | < 100 | < 50

— patent publication US20230183243A1, “HETEROARYL DERIVATIVES AND PHARMACEUTICAL COMPOSITION COMPRISING SAME AS ACTIVE INGREDIENT” (VORONOI INC., priority 2019, published 2023)
